Laboratory results reported in patent US20240158446A1, “CYCLIC COMPOUND HAVING SELECTIVE INHIBITORY ACTION ON KRAS OVER HRAS AND NRAS” (CHUGAI SEIYAKU KABUSHIKI KAISHA, priority 2021, published 2024).
Where two headings read alike, the source gives them in different places. *1 amine or outer side, *2 acyl side, *3 side chain or, on linkers, in order; H or OH if unused. Where a SMILES comes first, the peptide text is derived from it. Bridges are numbered along the chain shown (N, C = ends). [ ]: non-standard residue; d: D form. The star is where a group is joined. hPhe(3-Cl-4-CF3) = N[C@@H](CCc1ccc(C(F)(F)F)c(Cl)c1)C(=O)O; NPrPhe(4-CF3) = CCCN[C@@H](Cc1ccc(C(F)(F)F)cc1)C(=O)O; X28 = COCCCN([C@@H](Cc1ccc(C)cc1)C(=O)[*:2])[*:1]; NMePhe(4-Me) = CN[C@@H](Cc1ccc(C)cc1)C(=O)O; NMeGly(cPent) = CN[C@H](C(=O)O)C1CCCC1; NMeD = CN[C@@H](CC(=O)O)C(=O)O; NMeL = CN[C@@H](CC(C)C)C(=O)O; Morpholide = C1CN(*)CCO1; Ac5c = NC1(C(=O)O)CCCC1; Aze = O=C(O)[C@@H]1CCN1; Sar = CNCC(=O)O

Key:
[1] = target: GDP-bound KRAS wild-type protein (Homo sapiens, UniProt P01116); test: Binding to KRAS by surface plasmon resonance (SPR), Single Cycle Kinetics; conditions: GDP-bound KRAS wild-type protein, read-out: KRAS KD
GDP-bound KRAS wild-type protein, sequence (P01116 whole entry): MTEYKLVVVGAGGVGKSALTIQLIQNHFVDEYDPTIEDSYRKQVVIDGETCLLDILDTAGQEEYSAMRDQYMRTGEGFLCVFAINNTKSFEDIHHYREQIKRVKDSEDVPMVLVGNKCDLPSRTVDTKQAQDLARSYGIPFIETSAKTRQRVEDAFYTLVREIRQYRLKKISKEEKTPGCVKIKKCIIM

[2] = target: GDP-bound NRAS wild-type protein (Homo sapiens, UniProt P01111); test: Binding to NRAS by surface plasmon resonance (SPR), Single Cycle Kinetics
GDP-bound NRAS wild-type protein, sequence (P01111 whole entry): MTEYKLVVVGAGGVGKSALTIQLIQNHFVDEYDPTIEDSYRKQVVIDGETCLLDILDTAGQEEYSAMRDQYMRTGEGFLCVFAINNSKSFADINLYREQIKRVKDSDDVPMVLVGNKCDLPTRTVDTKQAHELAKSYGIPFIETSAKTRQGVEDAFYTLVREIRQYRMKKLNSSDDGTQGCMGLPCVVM

[3] = target: GDP-bound HRAS wild-type protein (Homo sapiens, UniProt P01112); test: Binding to HRAS by surface plasmon resonance (SPR), Single Cycle Kinetics
GDP-bound HRAS wild-type protein, sequence (P01112 whole entry): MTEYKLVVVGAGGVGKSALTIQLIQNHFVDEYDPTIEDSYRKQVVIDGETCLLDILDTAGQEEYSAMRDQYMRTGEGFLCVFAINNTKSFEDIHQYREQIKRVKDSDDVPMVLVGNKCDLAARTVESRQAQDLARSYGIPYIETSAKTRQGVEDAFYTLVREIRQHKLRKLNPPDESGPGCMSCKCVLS

[4] = SPR Single Cycle Kinetics, 1:1 binding model
[5] = SPR, GDP-bound NRAS wild-type protein vs GDP-bound KRAS wild-type protein
[6] = SPR, GDP-bound HRAS wild-type protein vs GDP-bound KRAS wild-type protein
[7] = SPR, Single Cycle Kinetics, 1:1 binding model
[8] = SPR, GDP-bound NRAS wild-type protein vs GDP-bound KRAS wild-type protein, KD ratio class
[9] = SPR, GDP-bound HRAS wild-type protein vs GDP-bound KRAS wild-type protein, KD ratio class

SMILES | Kd [1, 4] | NRAS/KRAS (ratio of KD value for NRAS to KD value for KRAS) [2, 5] | HRAS/KRAS (ratio of KD value for HRAS to KD value for KRAS) [3, 6] | Kd ([1]; SPR, Single Cycle Kinetics) | other results
CC[C@H](C)[C@@H]1NC(=O)[C@H](CC(C)C)N(C)C(=O)C[C@@H](C(=O)N2CCOCC2)N(C)C(=O)[C@H](C2CCCC2)N(C)C(=O)C2(CCCC2)NC(=O)[C@@H]2CCCN2C(=O)[C@H](CCc2ccc(C(F)(F)F)c(Cl)c2)NC(=O)CN(C)C(=O)[C@H](Cc2ccc(C)cc2)N(C)C(=O)CN(C)C(=O)CN(C)C1=O [PP0018] ([NMeL]I[Sar][Sar][NMePhe(4-Me)][Sar][hPhe(3-Cl-4-CF3)]P[Ac5c][NMeGly(cPent)][NMeD]-Morpholide; lactam N-11) | 0.077 nM | C (A compound having a KD ratio of 0.1 or more and less than 3 is denoted as C) | C (A compound having a KD ratio of 0.1 or more and less than 3 is denoted as C) | – | –
CC[C@H](C)[C@@H]1NC(=O)[C@H](CC2CC2)N(C)C(=O)C[C@@H](C(=O)N(C)C)N(C)C(=O)[C@H](C2CCCC2)N(C)C(=O)C2(CCC2)NC(=O)[C@@H]2CC(F)(F)CN2C(=O)[C@H](CCc2cc(F)c(C(F)(F)F)c(F)c2)NC(=O)CN(C)C(=O)[C@H](Cc2ccc(C(F)(F)F)cc2)N2CC/C=C\C[C@@H](C2=O)N(C)C(=O)CN(C)C1=O [PP1500, (2S,8S,14S,20S,23S,27S,30S,36S,38Z)-20-cyclopentyl-27-(cyclopropylmethyl)-8-[2-[3,5-difluoro-4-(trifluoromethyl)phenyl]ethyl]-12,12-difluoro-N,N,4,19,22,26,32,35-octamethyl-30-[(1S)-1-methylpropyl]-3,6,9,15,18,21,25,28,31,34,42-undecaoxo-2-[[4-(trifluoromethyl)phenyl]methyl]spiro[1,4,7,10,16,19,22,26,29,32,35-undecazatricyclo[34.5.1.0^10,14]dotetracont-38-ene-17,1′-cyclobutane]-23-carboxamide] | – | – | – | – | Kd [1, 7]: 0.039 nM; NRAS/KRAS (ratio of KD value for NRAS to KD value for KRAS) [2, 8]: A (a compound having 10 or more and less than 20 is denoted as A); HRAS/KRAS (ratio of KD value for HRAS to KD value for KRAS) [3, 9]: A (a compound having 10 or more and less than 20 is denoted as A)
CCC[C@H]1C(=O)N[C@@H]([C@@H](C)CC)C(=O)N(C)CC(=O)N(C)[C@H]2C/C=C\CCN(C2=O)[C@@H](Cc2ccc(C)cc2)C(=O)N(C)CC(=O)N[C@@H](CCc2ccc(C(F)(F)F)c(Cl)c2)C(=O)N2C[C@H](OCC)C[C@H]2C(=O)NC2(CC(C)(C)C2)C(=O)N(C)[C@@H](CC(C)C)C(=O)N(C)[C@H](C(=O)N(C)C)CC(=O)N1C [PP2224] | – | A (a compound having 10 or more and less than 20 is denoted as A) | A (a compound having 10 or more and less than 20 is denoted as A) | 0.38 nM | –
CCCOC[C@H]1C(=O)N[C@@H]([C@@H](C)CC)C(=O)N(C)CC(=O)N(C)[C@H]2C/C=C\CCN(C2=O)[C@@H](Cc2ccc(C(F)(F)F)cc2)C(=O)N(C)CC(=O)N[C@@H](CCc2cc(F)c(C(F)(F)F)c(F)c2)C(=O)N2C[C@H](OCC)C[C@H]2C(=O)NC2(CCC2)C(=O)N(C)[C@@H](C2CCCC2)C(=O)N(C)[C@H](C(=O)N(C)CC)CC(=O)N1C [PP1569] | – | – | – | – | Kd [1, 7]: 0.11 nM; NRAS/KRAS (ratio of KD value for NRAS to KD value for KRAS) [2, 8]: A (a compound having 10 or more and less than 20 is denoted as A); HRAS/KRAS (ratio of KD value for HRAS to KD value for KRAS) [3, 9]: B (a compound having 3 or more and less than 10 is denoted as B)
CCO[C@@H]1C[C@H]2C(=O)NC3(CCC3)C(=O)N(C)[C@@H](CC(C)C)C(=O)N(C)[C@H](C(=O)N(C)C)CC(=O)N(C)[C@@H](CC)C(=O)N[C@@H]([C@@H](C)CC)C(=O)N(C)CC(=O)N(C)[C@H]3C/C=C\CCN(C3=O)[C@@H](Cc3ccc(C(F)(F)F)cc3)C(=O)N(C)CC(=O)N[C@@H](CCc3cc(F)c(C(F)(F)F)c(F)c3)C(=O)N2C1 [PP1089, (2S,8S,12R,14S,20S,23S,27S,30S,36S,38Z)-8-[2-[3,5-difluoro-4-(trifluoromethyl)phenyl]ethyl]-12-ethoxy-27-ethyl-20-isobutyl-N,N,4,19,22,26,32,35-octamethyl-30-[(1S)-1-methylpropyl]-3,6,9,15,18,21,25,28,31,34,42-undecaoxo-2-[[4-(trifluoromethyl)phenyl]methyl]spiro[1,4,7,10,16,19,22,26,29,32,35-undecazatricyclo[34.5.1.0^10,14]dotetracont-38-ene-17,1′-cyclobutane]-23-carboxamide] | – | AA (a compound having 20 or more is denoted as AA) | A (a compound having 10 or more and less than 20 is denoted as A) | 0.12 nM | –
CCCN1C(=O)CN(C)C(=O)[C@@H]2CCN2C(=O)[C@H]([C@@H](C)CC)NC(=O)[C@H](CC(C)C)N(C)C(=O)C[C@@H](C(=O)N(C)C)NC(=O)[C@H](C2CCCC2)N(C)C(=O)C2(CCCC2)NC(=O)[C@@H]2CCCN2C(=O)[C@H](CCc2ccc(C(F)(F)F)c(Cl)c2)NC(=O)CN(C)C(=O)[C@@H]1Cc1ccc(C(F)(F)F)cc1 [PP0373] ([NMeL]I[Aze][Sar][NPrPhe(4-CF3)][Sar][hPhe(3-Cl-4-CF3)]P[Ac5c][NMeGly(cPent)]D-NMe2; lactam N-11) | 1.2 nM | B (a compound having 3 or more and less than 10 is denoted as B) | B (a compound having 3 or more and less than 10 is denoted as B) | – | –
CCO[C@@H]1C[C@H]2C(=O)NC3(CCC3)C(=O)N(C)[C@@H](C3CCCC3)C(=O)N(CC)[C@H](C(=O)N3CCOCC3)CC(=O)N(C)[C@@H](COC)C(=O)N[C@@H]([C@@H](C)CC)C(=O)N(C)CC(=O)N(C)[C@H]3CCCCCN(C3=O)[C@@H](Cc3ccc(C(F)(F)F)cc3)C(=O)N(C)CC(=O)N[C@@H](CCc3cc(F)c(C(F)(F)F)c(F)c3)C(=O)N2C1 [PP0946] | – | A (a compound having 10 or more and less than 20 is denoted as A) | B (a compound having 3 or more and less than 10 is denoted as B) | 2.2 nM | –
CC[C@H](C)[C@@H]1NC(=O)[C@H](CC(C)C)N(C)C(=O)C[C@@H](C(=O)N2CCOCC2)N(C)C(=O)[C@H](C2CCCC2)N(C)C(=O)C2(CCCC2)NC(=O)[C@@H]2CCCN2C(=O)[C@H](CCc2ccc(C(F)(F)F)c(Cl)c2)NC(=O)CN(C)C(=O)[C@H](Cc2ccc(C)cc2)N(CCCOC)C(=O)CN(C)C(=O)CN(C)C1=O [PP0105] ([NMeL]I[Sar][Sar][X28][Sar][hPhe(3-Cl-4-CF3)]P[Ac5c][NMeGly(cPent)][NMeD]-Morpholide; lactam N-11) | 0.14 nM | B (a compound having 3 or more and less than 10 is denoted as B) | C (A compound having a KD ratio of 0.1 or more and less than 3 is denoted as C) | – | –
CCO[C@@H]1C[C@H]2C(=O)NC3(CCC3)C(=O)N(C)[C@@H](C(CC)CC)C(=O)N(C)C(C(C)C)CC(=O)N(C)[C@@H](CC)C(=O)N[C@@H]([C@@H](C)CC)C(=O)N(C)CC(=O)N(C)[C@H]3C/C=C\CCN(C3=O)[C@@H](Cc3ccc(C(F)(F)F)cc3)C(=O)N(C)CC(=O)N[C@@H](CCc3cc(F)c(C(F)(F)F)c(F)c3)C(=O)N2C1 (stereo partly drawn) [PP1589] | – | – | – | – | Kd [1, 7]: 1.8 nM; NRAS/KRAS (ratio of KD value for NRAS to KD value for KRAS) [2, 8]: A (a compound having 10 or more and less than 20 is denoted as A); HRAS/KRAS (ratio of KD value for HRAS to KD value for KRAS) [3, 9]: A (a compound having 10 or more and less than 20 is denoted as A)
CCO[C@@H]1C[C@H]2C(=O)NC3(CCC3)C(=O)N(C)[C@@H](C3CCCC3)C(=O)N(C)[C@H](C(=O)N(C)C)CC(=O)N(C)[C@@H](CC3CCCC3)C(=O)N[C@@H]([C@@H](C)CC)C(=O)N(C)CC(=O)N(C)[C@H]3C/C=C\CCN(C3=O)[C@@H](Cc3ccc(C)cc3)C(=O)N(C)CC(=O)N[C@@H](CCc3cc(C)c(C(F)F)c(F)c3)C(=O)N2C1 [PP2676] | 0.87 nM | – | – | – | NRAS/KRAS (ratio of KD value with respect to GDP-bound NRAS wild-type protein to KD value with respect to KRAS) ([2]; SPR KD ratio NRAS/KRAS, class symbols): A (a compound having 10 or more and less than 20 is denoted as A); HRAS/KRAS (ratio of KD value with respect to GDP-bound HRAS wild-type protein to KD value with respect to KRAS) ([3]; SPR KD ratio HRAS/KRAS, class symbols): A (a compound having 10 or more and less than 20 is denoted as A)
CCO[C@@H]1C[C@H]2C(=O)NC3(CCCC3)C(=O)N(C)[C@@H](C3CCCC3)C(=O)N(C)[C@H](C(=O)N3CCOCC3)CC(=O)N(C)[C@@H](CC(C)C)C(=O)N[C@@H]([C@@H](C)CC)C(=O)N(C)CC(=O)N(C)[C@H]3CCCCCN(C3=O)[C@@H](Cc3ccc(C(F)(F)F)cc3)C(=O)N(C)CC(=O)N[C@@H](CCc3cc(F)c(C(F)(F)F)c(F)c3)C(=O)N2C1 [PP0492] | 1.2 nM | – | – | – | NRAS/KRAS (ratio of KD value with respect to NRAS to KD value with respect to KRAS) [2, 5]: B (a compound having 3 or more and less than 10 is denoted as B); HRAS/KRAS (ratio of KD value with respect to HRAS to KD value with respect to KRAS) [3, 6]: B (a compound having 3 or more and less than 10 is denoted as B)
CC[C@H](C)[C@@H]1NC(=O)[C@H](CC(C)C)N(C)C(=O)C[C@@H](C(=O)N2CCOCC2)N(C)C(=O)[C@H](C2CCCC2)N(C)C(=O)C2(CCC2)NC(=O)[C@@H]2C[C@@H](OC)CN2C(=O)[C@H](CCc2cc(F)c(C(F)(F)F)c(F)c2)NC(=O)CN(C)C(=O)[C@H](Cc2ccc(C(F)(F)F)cc2)N2CCCC[C@@H](C2=O)N(C)C(=O)CN(C)C1=O [PP1003] | – | C (A compound having a KD ratio of 0.1 or more and less than 3 is denoted as C) | B (a compound having 3 or more and less than 10 is denoted as B) | 0.076 nM | –
